Assay results as given in US6207648A, “Methods of using cytochrome P450 reductase for the enhancement of P450-based anti-cancer gene therapy” (priority 1998, dated 2001).

Assays:
[1] = tested on: 9L/pBabe, 9L/2B6, 9L/hRED and 9L/2B6/hRED gliosarcoma cells; assay: Cytotoxicity assay of 9L cells transduced with human RED and/or P450 2B6, normoxic or hypoxic (Example 3)
Experimental: Cells were seeded at 4000 cells/well in 48-well plates and treated with increasing concentrations of CPA for 4 days. Cell growth in comparison to drug-free controls was determined by crystal violet staining and is presented as mean±SD for n=3 replicates.
FIG. 21 is a graph depicting the cytotoxic effects of the bioreductive drug TPZ toward 9L/pBabe control cells and 9L cells transduced with retroviruses encoding human RED and/or P450 2B6 under normoxic culture conditions. Cells were seeded at 4000 cells/well in 48-well plates and treated with increasing concentrations of TPZ for 4 days. Cell growth in comparison to drug-free controls was determined by crystal violet staining and is presented as mean±SD for n=3 replicates.
FIG. 22 is a graph depicting the cytotoxicity of increasing concentrations of TPZ under hypoxic conditions (1% O2) toward 9L tumor cells transduced with retroviruses encoding P450 2B6 and/or human RED. 9L/pBabe cells served as controls. Cells were seeded at 4000 cells/well in 48-well plates and treated with increasing concentrations of TPZ for 4 days. Cell growth in comparison to drug-free controls was determined by crystal violet staining and is presented as mean±SD for n=3 replicates.
FIGS. 24A, 24B and 24C are graphs depicting the cytotoxic effects of TPZ (5 or 10 μM, as indicated) in combination with increasing concentrations of CPA under normoxic culture conditions (19.6% O2, 5% CO2). The data shown were obtained using 9L/2B6/hRED cells (FIG. 24A), 9L/hRED cells (FIG. 24B) and 9L/pBabe (control) cells (FIG. 24C). Data were compared to the cytotoxicity of increasing concentrations of CPA alone (i. e., in the absence of TPZ) measured using the same pools of tumor cells. Cells were seeded at 4000 cells/well in 48-well plates and then treated with the indicated drug concentrations for 4 days. Cell growth in comparison to drug-free controls (i.e., in the absence of CPA and TPZ) was determined by crystal violet staining and is presented as mean±SD for n=3 replicates.
FIGS. 25A, 25B and 25C are graphs depicting the cytotoxic effects of TPZ (0.5 or 1.5 μM, as indicated) in combination with increasing concentrations of CPA under hypoxic culture conditions (1% O2, 5% CO2). The data shown were obtained using 9L/2B6/hRED cells (FIG. 25A), 9L/hRED cells (FIG. 25B) and 9L/pBabe (control) cells (FIG. 25C). Data were compared to the cytotoxicity of increasing concentrations of CPA alone (i.e., in the absence of TPZ) measured using the same pools of tumor cells. Cells were seeded at 4000 cells/well in 48-well plates and then treated with the indicated drug concentrations for 4 days. Cell growth in comparison to drug-free controls (i.e., in the absence of CPA and TPZ) was determined by crystal violet staining and is presented as mean±SD for n=3 replicates.
Cytotoxicity assays: To evaluate the chemosensitivity of the P450- and P450/RED-expressing 9L tumor cells, cells were plated in triplicate at 4000 cells/well of a 48-well plate 18-24 hours prior to drug treatment. Cells were then treated with drugs (0 to 1 mM CPA or 0 to 50 μM TPZ, as indicated in each experiment) and placed in a tissue culture incubator maintained under hypoxic conditions (1% O2, 5% CO2, 94% N2) or under normoxic conditions (19.6% O2, 5% CO2, 75.4% N2) for a period of 4 days. 9L/pBabe cells, which were transduced with the empty retroviral plasmid pBabe-puro (see, Example 2), served as controls. Cells remaining after this time were quantitated using a crystal violet/alcohol-extraction assay, as described under Example 2. Data are presented as cell number relative to drug-free controls, mean±SD values for triplicate samples, unless indicated otherwise.

[2] = in vivo; cited from earlier work
[3] = tested on: 9L and 9L-R cells infected with Ad.CMV-2B1; assay: Adenovirus-mediated CYP2B1 gene transduction, CPA cytotoxicity (XTT); assay type: cell-based, rat
Experimental: FIGS. 8A and 8B are graphs depicting much greater cytotoxicity of adenovirus-mediated P450 gene transfer combined with CPA treatment in the case of 9L tumor cells engineered to express RED (FIG. 8B), compared to wild-type 9L cells that express basal RED activity (FIG. 8A). Cells were infected with Ad.CMV-2B1 at multiplicities of infection (MOI) ranging from 50-800, as indicated by the values in parenthesis on the right of each panel. Uninfected cells (UI) were used as controls. At 24 hours post infection, cells were replated at 500 cells per well in duplicate on 96-well plates. CPA was then added at concentrations up to 2 mM. After 5 days of incubation, cell survival was determined by an XTT colorimetric assay.
Adenovirus-mediated CYP2B1 gene transduction: A recombinant adenovirus, Ad.CMV-2B1, carrying the CYP2B1 gene was constructed as described in Chen, L., et al., Cancer Res. 56:1331-1340 (1996). Large scale production of recombinant adenovirus was performed by growth in 293 cells followed by purification by double cesium gradient ultracentrifugation (Graham, F. L. and Prevec, L., "Manipulation of Adenovirus Vectors" in Methods in Molecular Biology:Gene Transfer and Expression Protocols, volume 7, E. J. Murray (ed.), The Human Press, Inc., Clifton, N.J., pages 109-127 (1991)). The titer of purified adenovirus was determined in a spectrophotometer at 260 nm and by plaque assays. Ad.CMV-2B1 was added to the cells plated on 30 mm diameter tissue culture plates at multiplicities of infection (MOI) as indicated in the figure legends. Twenty four hours after viral infection, the infected cells were trypsinized and replated at 500 cells/well onto 96 well tissue culture plates and treated with CPA. Four to seven days after CPA treatment, the number of surviving cells was determined using the XTT assay described above.

**Q.** Which “effect of hypoxia on CPA cytotoxicity toward 9L/2B6/RED or 9L/2B6 cells” value ([1]; 1% O2) does the source give for O=P1(N(CCCl)CCCl)NCCCO1 (centres unmarked) [CPA, cyclophosphamide] here?
**A.** The value was “does not significantly alter the cytotoxicity”.

**Q.** What about the “CPA cytotoxicity on retroviral transduction of hRED” value ([1]; 9L/2B6/hRED vs 9L/2B6, normoxic) of the same compound?
**A.** The value was “large increase in CPA cytotoxicity”.

**Q.** What about the “CPA cytotoxicity in 9L/hRED and 9L/pBabe cells” value ([1]; normoxic) of the same compound?
**A.** Its value is “No CPA cytotoxicity was observed”.

**Q.** And the “side effects of systemic distribution of drug and alkylating metabolites” value [2]?
**A.** Its value is “cardiotoxicity, renal toxicity, marrow suppression, and neurotoxoxicity”.

**Q.** And the “CPA sensitivity of cells infected with Ad.CMV-2B1” value ([3]; MOI 50 to 800, most striking in RED overexpressing cells)?
**A.** Its value is “acquired CPA sensitivity”.

**Q.** What about the “enhancement of drug cytotoxicity in Ad.CMV-2B1-infected cells at higher viral multiplicities” value ([3]; RED-overexpressing 9L cells) of the same compound?
**A.** Its value is “further enhanced”.

**Q.** What about the “CPA sensitivity of 9L cells infected with lacZ adenovirus” value ([3]; control experiment) of the same compound?
**A.** The value was “did not sensitize the cells”.

**Q.** And the “enhancement of drug cytotoxicity in Ad.CMV-2B1-infected cells at higher viral multiplicities” value ([3]; parental 9L cells, MOI above 200)?
**A.** The value was “not further enhanced”.
